The record followed here is EPA's ToxValDB 9.5 (doi:10.2903/j.efsa.2016.4492).

≈ marks a conversion by molar mass, not a printed value.

In data set [1] the test system is Apis mellifera. The settings on record: acute, mortality.
The subject of data set [2] is Canidae. Conditions: chronic; duration: 1 years; oral; Dog Other; body weight.
Data set [3] concerns Colinus virginianus. Conditions: mortality.
Data set [4] has as its system Daphnia magna. The settings on record: chronic/long-term; duration: 21 days.
Data set [5] deals with Folsomia candida. The settings on record: chronic/long-term; duration: 28 days.
The test system of data set [6] is Myriophyllum aquaticum. The settings on record: chronic/long-term; duration: 7 days; growth.
Data set [7] has as its system Oncorhynchus mykiss. Conditions: acute; duration: 96 hours; mortality.
Data set [8] relates to Pimephales promelas. Conditions: chronic/long-term; duration: 32 days.
Data set [9] concerns Rattus norvegicus.
In data set [10] the test system is Typhlodromus pyri. Briefly: LR50; higher = less toxic. Conditions: not reported; mortality.

As to `O=C1CC=C([O-])N=N1.[K+]` [Maleic hydrazide, potassium salt], the LD50 in data set [1] (dermal) is greater than 100 µg/piece; in [1] (oral, unspecified) it was greater than 100 µg/piece.

What is called NOAEL is the highest tested level that showed no adverse finding. Usually LC50 stands for the concentration that kills 50% of the test population. As to `O=c1ccc(=O)[nH][nH]1` [Maleic hydrazide], the NOAEL in data set [2] was determined as 25 mg/kg-day; in data set [9] (chronic, duration: 2 years, body weight), 25 mg/kg-day; in data set [9] (reproduction developmental, body weight), 398 mg/kg-day; in data set [9] (short-term, duration: 28 days, inhalation), 22 mg/kg-day. Also, the LD50 is greater than 1490 mg/kg in data set [3] (acute, oral) and greater than 2000 mg/kg in [9] (acute, oral, M/F, mortality). The NOEC turned out to be 542 mg/kg-day in data set [3] (chronic); 0.57 mg/L in data set [4]; 113 mg/kg in data set [5]; 3.2 mg/L in data set [6]; 9.6 mg/L in data set [8]. The same molecule yielded an LC50 in data set [7] of 79.4 µg/mL (≈ 708 µM). Moreover, the LR50 in data set [10] was less than 3000 g/ha.
